{"source": "paper PMC8002391", "about": "“A High-Throughput Screening System Based on Fluorescence-Activated Cell Sorting for the Directed Evolution of Chitinase A” (International Journal of Molecular Sciences, 2021)", "target": "T1, ChiA (chitinase A) (Bacillus licheniformis, UniProt B7UB89)", "T1 construct": "synthetic chiA gene in pET22b(+), in frame with pelB signal for periplasmic expression in E. coli BL21 (DE3); whole cells assayed", "T1 sequence (B7UB89 1-580)": "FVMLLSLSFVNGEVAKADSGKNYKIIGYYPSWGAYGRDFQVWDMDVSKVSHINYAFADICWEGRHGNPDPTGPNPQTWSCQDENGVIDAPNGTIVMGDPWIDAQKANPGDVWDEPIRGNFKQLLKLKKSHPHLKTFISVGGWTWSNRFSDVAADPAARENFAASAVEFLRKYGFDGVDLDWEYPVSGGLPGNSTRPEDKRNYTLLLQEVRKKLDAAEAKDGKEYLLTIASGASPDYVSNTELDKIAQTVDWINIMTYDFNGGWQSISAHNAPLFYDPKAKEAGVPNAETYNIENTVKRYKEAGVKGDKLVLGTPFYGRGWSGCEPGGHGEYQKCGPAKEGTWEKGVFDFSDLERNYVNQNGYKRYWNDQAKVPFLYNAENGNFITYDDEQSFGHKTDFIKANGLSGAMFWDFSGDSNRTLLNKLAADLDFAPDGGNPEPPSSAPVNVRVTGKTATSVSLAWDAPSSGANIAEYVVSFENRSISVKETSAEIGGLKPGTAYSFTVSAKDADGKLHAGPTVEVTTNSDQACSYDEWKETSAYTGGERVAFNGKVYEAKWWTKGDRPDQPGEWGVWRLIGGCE", "test": "fluorescence microtiter plate assay with whole E. coli cells expressing chiA (4MU release)", "assay_type": "cell-based", "conditions": "0.1 M sodium acetate pH 6.0; 25 µL cells + 25 µL 0.5 mg/mL 4MUTC; empty-vector cells as control"}
{"smiles": "CC(=O)N[C@H]1[C@H](Oc2ccc3c(C)cc(=O)oc3c2)O[C@H](CO)[C@@H](O[C@@H]2O[C@H](CO)[C@@H](O[C@@H]3O[C@H](CO)[C@@H](O)[C@H](O)[C@H]3NC(C)=O)[C@H](O)[C@H]2NC(C)=O)[C@@H]1O", "note": "[4-methylumbelliferyl β-D-N,N′,N″-triacetyl chitotrioside]", "values": [{"measurement": "fluorescence microtiter plate assay with whole E. coli cells expressing chiA (4M)", "result": "comparing E. coli cells expressing chiA to those transformed with the empty vector"}]}
